US20090156644A1, “Use of thiazole derivatives and analogues in the treatment of cancer” (priority 2005, published 2009)

Legend:
MDA-MB-231 cells = assay: Test A cell proliferation assay (FFA/linolenic acid stimulated, S-phase by flow cytometry); format: cell-based, human; settings: linolenic acid 100 μM, 24 hours; Compounds X and Y 10 μM, Compound Z 40 μM; FIGS. 1c, 2A-2C
Procedure: Dulbecco's modified Eagle's medium (D-MEM)+1000 mg/L Glucose+GlutaMAX™1+Pyruvate (Gibco #21885-025)
PEST (100 U/ml penicillin, 100 ug/ml streptomycin, Gibco 15140-122) CyStain PI absolute T Kit (Partec #05-5023) Linolenic acid 99%, L2376 from Sigma Aldrich Dimethyl sulfoxide (DMSO)
Cytomics™ FC500 Flow Cytometer with CXP software (Beckman Coulter) MDA-MB-231 cells
MDA-MB-231 cells were cultured in the propagation media D-MEM+1000 mg/L Glucose+GlutaMAX™1+Pyruvate supplemented with 10% V/V Foetal Bovine Serum and PEST (100 U/ml penicillin, 100 μg/mL streptomycin). Cells were seeded in 6 well plates to a density of 300 000 cells/well in propagation media. After 24 hours, media was replaced with serum free D-MEM media.
Linolenic acid was diluted in DMSO to a concentration of 100 mM and added to the culture media to a final concentration of 100 μM.
Compounds were as dissolved in DMSO to a concentrations of 10 mM (Compounds of Examples 95 and 6 (Compound X and Compound Y, respectively)) and 40 mM (Compound of Example 4 (Compound Z)) and added to the culture media to a final concentration of 10 μM (X and Y) and 40 μM (Z) respectively.
After 24 hours in serum free media DMEM, linolenic acid (to a final concentration of […]) and compounds to be screened for activity were added to a final concentration of 10 μM (Compounds X and Y) and 40 μM (Compound Z) respectively. Final DMSO concentration was kept at 0.2% in all wells. After 24 hours of stimulation, cells were harvested and propidium iodine stained using a CyStain PI absolute T Kit according to manufacturer's recommendations. Cells were subsequently analyzed using a Cytomics™ FC500 Flow Cytometer with CXP software (Beckman Coulter) for cell cycle distribution. Cells were incubated with or without linolenic acid (LA) and the Compounds X, Y and Z for 24 hours at indicated concentrations. Cells in S-phase from untreated sample were set to 100% in each experiment.

[1] = system: MDA-MB-231 human breast cancer cells; assay: Test B in vivo mouse model, tumor histology; set-up: species or system Athymic BALB/cA nude mice; settings: 1 mg/kg intraperitoneal once daily for 9 days; for cell density in the interior of the tumor section / cells displaying macrophage/monocyte morphology in the interior of the tumor section: hematoxylin stained cryosections, versus vehicle
Procedure: week old Athymic BALB/cA nude mice were delivered from Taconic (Denmark) and kept under barrier conditions for 1 week acclimatisation. At 6 weeks, 17 mice were injected subcutaneously on the flank with 1.8×10^6 MDA-MB-231 human breast cancer cells (LGC Promochem-ATCC) in a 50/50 v/v solution of phosphate buffered saline (PBS) (Gibco 10010-015, Invitrogen) Matrigel HC (BD Biosciences).
2 mice were sacrificed and the tumors dissected and examined. 2 groups of 7 mice each were treated once daily by intraperitoneal injections of 1 mg/kg bodyweight of the compound of Example 6 (Compound Y) in PBS/1% v/v dimethylsufoxide or vehicle control respectively for 9 days. The mice were sacrificed by cervical dislocation and tumors were dissected.
The tumor tissue were fixated overnight in PBS (containing 4% w/v paraformaldehyde (Scharlau PA0095, Sharlau Chemie SA, Spain) at +4° C. The tumor tissue were then cryopreserved by 24 hour incubation in PBS containing 30% w/v sucrose (BDH #102745C (www.vwr.com) at +4° C. and embedded in Tissue-Tek embedding media (Sakura Finetek Europa BV, Netherlands). 10 μm cryosections were generated an stained with Mayers Hematoxylin (Dako) for 5 min and destained for 3×10 minutes in tap water. Slides were mounted using Dako faramount aqueous mounting medium and examined using a Nikon Eclipse TS 100 microscope documented using a Nikon coolpix 4500.
The tumors from mice treated with test compound and vehicle were analyzed for morphology by microscopic examination of hematoxylin stained cryosections.

| SMILES | antagonism of free fatty acid stimulated cell proliferation (MDA-MB-231 cells) | cells displaying fibroblast morphology in the interior of the tumor section ([1]; hematoxylin stained cryosection, 20× magnification) | cell density in the interior of the tumor section [1] | cells displaying macrophage/monocyte morphology in the interior of the tumor section [1] | cell density in the interior of the tumor section ([1]; listed as test compound) | cells displaying macrophage/monocyte morphology in the interior of the tumor section ([1]; listed as test compound) |
| --- | --- | --- | --- | --- | --- | --- |
| O=C1NC(=Nc2ccccn2)SC1Cc1ccc(F)cc1 (centres unmarked) [Compound X, 5-(4-Fluorobenzyl)-2-(pyridin-2-ylimino)thiazolidin-4-one] | able to antagonize free fatty acid stimulated cell proliferation | – | – | – | – | – |
| O=C1NC(=Nc2ccc(Cl)cc2)SC1Cc1cccc(C(F)(F)F)c1 (centres unmarked) [Compound Y, 5-(3-(Trifluoromethyl)benzyl)-2-(4-chlorophenylimino)thiazolidin-4-one] | able to antagonize free fatty acid stimulated cell proliferation | lack of cells displaying fibroblast morphology | low cell density | accumulation of cells displaying morphology indicative of macrophage/monocyte | markedly reduced | a frequent finding |
| Cc1ccc(N=C2NC(=O)C(Cc3cccc(C(F)(F)F)c3)S2)cc1 (centres unmarked) [Compound Z, 5-(3-(Trifluoromethyl)benzyl)-2-(p-tolylimino)thiazolidin-4-one] | able to antagonize free fatty acid stimulated cell proliferation | – | – | – | – | – |
